Assay results: patent US7635696B2, “Isoxazoline-indole derivatives with an improved antipsychotic and anxiolytic activity” (Janssen Pharmaceutica N.V., priority 2004, dated 2009)
Read-outs that look alike come from different tables or passages of the source.

Columns and labels:
human 5HT transporter = target: T1, human 5HT transporter (Homo sapiens, UniProt P31645); experiment: Binding experiment for 5-HT transporter ([3H]Paroxetine)
T1 construct: host or cells: HEK cells
Description: (§1) The interaction of the compounds of Formula (I) with dopamine-receptors, h5HT-transporter and h5HT1A receptor was assessed in in vitro radioligand binding experiments. In general, a low concentration of a radioligand with a high binding affinity for a particular receptor or transporter is incubated with a sample of a tissue preparation enriched in a particular receptor or transporter or with a preparation of cells expressing cloned human receptors in a buffered medium. During the incubation, the radioligand binds to the receptor or transporter. When equilibrium of binding is reached, the receptor bound radioactivity is separated from the non-bound radioactivity, and the receptor- or transporter-bound activity is counted. The interaction of the test compounds with the receptor is assessed in competition binding experiments. Various concentrations of the test compound are added to the incubation mixture containing the receptor- or transporter preparation and the radioligand. The test compound in proportion to its binding affinity and its concentration inhibits binding of the radioligand.
Frozen human 5HT transporter-transfected HEK cells (Perkin Elmer, Brussels) were thawed and briefly homogenised using an Ultra-Turrax T25 homogeniser prior to dilution to an appropriate protein concentration optimised for specific and non-specific binding. [^3H]Paroxetine (NEN, specific activity 20 Ci/mmol) was diluted in Tris-HCl assay buffer containing NaCl and KCl (50 mM, 120 mM and 5 mM, respectively; pH 7.4) at a concentration of 5 nmol/L. Prepared radioligand (25 μl) was then incubated (60 min, 25° C.) with membrane preparations (200 μl) and with 25 μl of either 10% DMSO control, Inipramine (10^−6 mol/L final concentration), or compound of interest. Membrane-bound activity was detected by filtration through a Packard Filtermate harvester onto Unifilterplates pre-soaked in 0.1% PEI, washing with ice-cold assay buffer (3×4 ml). Filters were dried prior to addition of scintillation fluid and then counting in a Topcount scintillation counter. % Specific bound and competition binding curves were calculated using S-Plus software (Insightful).

Human 5HT1A receptor = target: T2, Human 5HT1A receptor (Homo sapiens, UniProt P08908); experiment: Binding experiment for 5-HT1A receptor ([3H]8OHDPAT)
T2 construct: expressed in transfected cells; host or cells: L929 cells (stably transfected)
T2 sequence (P08908 1-422): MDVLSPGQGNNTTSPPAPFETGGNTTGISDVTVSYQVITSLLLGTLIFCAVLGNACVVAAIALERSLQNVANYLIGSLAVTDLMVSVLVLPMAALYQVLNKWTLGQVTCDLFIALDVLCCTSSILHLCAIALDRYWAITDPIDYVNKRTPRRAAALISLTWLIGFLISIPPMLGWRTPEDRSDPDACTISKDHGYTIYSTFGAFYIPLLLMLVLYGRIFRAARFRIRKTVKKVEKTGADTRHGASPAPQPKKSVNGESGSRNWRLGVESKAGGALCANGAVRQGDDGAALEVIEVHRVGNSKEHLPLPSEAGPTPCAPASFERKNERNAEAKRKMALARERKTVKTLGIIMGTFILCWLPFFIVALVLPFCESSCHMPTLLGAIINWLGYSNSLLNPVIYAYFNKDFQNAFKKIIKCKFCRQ
Description: as §1
Human 5HT1A receptor-transfected L929 cells were collected by scraping into ice-cold Tris-HCl buffer (50 mM, pH 7.4). The suspension was centrifuged (23 500×g, 10 min, 4° C.) and pellets stored at −70° C. until required. They were then thawed and briefly homogenised using an Ultra-Turrax T25 homogeniser prior to dilution to an appropriate protein concentration optimised for specific and non-specific binding. [^3H]80HDPAT (NEN, specific activity 127 Ci/mmol) was diluted in Tris-HCl assay buffer containing CaCl2 (50 mM and 4 mM, respectively; pH 7.7) at a concentration of 5 nmol/L. Prepared radioligand (50 μl) was then incubated (30 min, 37° C.) with membrane preparations from L929 cells stably-transfected with the h5HT1A gene construct (400 μl) and with 50 μl of either the 10% DMSO control, spiroxatrine (10^−6 mol/L final concentration), or compound of interest. Membrane-bound activity was detected by filtration through a Packard Filtermate harvester onto Unifilterplates, washing with ice-cold Tris-HCl buffer (3×4 ml), followed by drying. Scintillation fluid was added and membranes were counted in a Topcount scintillation counter. % Specific bound and competition binding curves were calculated using S-Plus software (Insightful).

[1] = target: T3, Human Dopamine D2L receptor (Homo sapiens, UniProt P14416); experiment: Binding experiment for dopamine D2 receptor ([3H]Spiperone); details: D2L-transfected CHO cell membranes; for IC50: read-out: pIC50 D2 (converted)
T3 construct: expressed in transfected cells; host or cells: CHO cells
Description: as §1
Human Dopamine D2L receptor-transfected CHO cells were collected by scraping into ice-cold Tris-HCl buffer (50 mM, pH 7.4). The suspension was centrifuged (23 500×g, 10 min, 4° C.) and pellets stored at −70° C. until required. They were then thawed and briefly homogenised using an Ultra-Turrax T25 homogeniser prior to dilution to an appropriate protein concentration optimised for specific and non-specific binding. [^3H]Spiperone (NEN, specific activity ˜70 Ci/mmol) was diluted in Tris-HCl assay buffer containing NaCl, CaCl2, MgCl2, KCl (50, 120, 2, 1, and 5 mM respectively, adjusted to pH 7.7 with HCl) at a concentration of 2 nmol/L. Prepared radioligand (50 μl) was then incubated (30 min, 37° C.) with membrane preparations pre-diluted to an appropriate protein concentration (400 μl), and with 50 μl of either the 10% DMSO control, Butaclamol (10^−6 mol/L final concentration), or compound of interest. Membrane-bound activity was detected by filtration through a Packard Filtermate harvester onto Unifilterplates, washing with ice-cold Tris-HCl buffer (50 mM; pH8.0; 3×4 ml). Filters were allowed to dry before adding scintillation fluid and counting in a Topcount scintillation counter. % Specific bound and competition binding curves were calculated using S-Plus software (Insightful).

[2] = transfected HEK cell membranes, [3H]Paroxetine, read-out: pIC50 5HTT (converted)
[3] = transfected L929 cell membranes, [3H]8OHDPAT, read-out: pIC50 5-HT1A (converted)
[4] = transfected HEK cell membranes, [3H]Paroxetine
[5] = transfected L929 cell membranes, [3H]8OHDPAT

T1 sequence (P31645 whole entry): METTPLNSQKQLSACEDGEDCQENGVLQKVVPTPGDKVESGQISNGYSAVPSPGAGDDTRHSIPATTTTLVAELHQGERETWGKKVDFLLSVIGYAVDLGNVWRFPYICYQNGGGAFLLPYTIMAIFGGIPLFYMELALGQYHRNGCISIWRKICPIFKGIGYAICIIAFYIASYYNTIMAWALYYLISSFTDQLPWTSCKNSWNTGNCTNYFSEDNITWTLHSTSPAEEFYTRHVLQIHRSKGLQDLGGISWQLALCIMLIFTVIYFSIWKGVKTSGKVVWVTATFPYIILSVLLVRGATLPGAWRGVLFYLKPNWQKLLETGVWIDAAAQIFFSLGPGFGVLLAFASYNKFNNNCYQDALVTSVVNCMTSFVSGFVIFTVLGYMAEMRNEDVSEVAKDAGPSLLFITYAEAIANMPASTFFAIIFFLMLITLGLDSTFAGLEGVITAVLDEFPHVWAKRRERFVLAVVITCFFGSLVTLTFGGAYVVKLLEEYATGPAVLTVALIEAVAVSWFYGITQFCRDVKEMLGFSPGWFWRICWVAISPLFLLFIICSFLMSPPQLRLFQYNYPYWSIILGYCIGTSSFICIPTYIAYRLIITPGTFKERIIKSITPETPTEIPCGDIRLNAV
T3 sequence (P14416 whole entry): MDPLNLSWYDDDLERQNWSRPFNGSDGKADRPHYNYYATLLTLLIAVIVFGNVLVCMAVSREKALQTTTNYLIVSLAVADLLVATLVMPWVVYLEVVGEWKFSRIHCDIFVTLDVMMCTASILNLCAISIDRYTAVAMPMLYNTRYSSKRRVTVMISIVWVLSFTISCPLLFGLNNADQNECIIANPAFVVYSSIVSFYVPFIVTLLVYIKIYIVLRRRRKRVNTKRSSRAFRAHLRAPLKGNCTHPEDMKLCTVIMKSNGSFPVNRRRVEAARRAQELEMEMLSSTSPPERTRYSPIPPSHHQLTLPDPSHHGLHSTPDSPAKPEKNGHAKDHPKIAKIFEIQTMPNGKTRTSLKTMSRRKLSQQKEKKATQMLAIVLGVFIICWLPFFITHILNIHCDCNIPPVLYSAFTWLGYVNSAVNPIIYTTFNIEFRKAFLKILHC

SMILES	IC50 (human 5HT transporter; [2]) [nM]	IC50 [1] [nM]	pIC50 5HTT (human 5HT transporter; [4])	pIC50 5-HT1A (Human 5HT1A receptor; [5])	pIC50 D2 [1]	also measured
COc1ccc2[nH]cc(C3CCN(CC4ON=C5c6cc(OC)c(OC)cc6OCC54)CC3)c2c1 (racemic) [Compound 8]	1260	> 1000	–	–	–	IC50 (Human 5HT1A receptor; [3]): 7.94 nM
CCNC(=O)Nc1ccc2[nH]cc(C3=CCN(CC4ON=C5c6cc(OC)c(OC)cc6OCC54)CC3)c2c1 (racemic) [Compound 37]	> 10000	> 10000	–	–	–	IC50 (Human 5HT1A receptor; [3]): 7.94 nM
COc1cc2c(cc1OC)C1=NOC(CN3CC=C(c4c[nH]c5ccc(NC(=O)Nc6ccccc6)cc45)CC3)C1CO2 (racemic) [Compound 38]	–	–	<5	8.4	<5	–
CCOC(=O)CNC(=O)Nc1ccc2[nH]cc(C3=CCN(CC4ON=C5c6cc(OC)c(OC)cc6OCC54)CC3)c2c1 (racemic) [Compound 39]	–	–	<5	7.8	<5	–
COc1cc2c(cc1OC)C1=NOC(CN3CC=C(c4c[nH]c5ccc(NC(C)=O)cc45)CC3)C1CO2 (racemic) [Compound 40]	> 10000	> 10000	–	–	–	IC50 (Human 5HT1A receptor; [3]): 3.16 nM
COCC(=O)Nc1ccc2[nH]cc(C3=CCN(CC4ON=C5c6cc(OC)c(OC)cc6OCC54)CC3)c2c1 (racemic) [Compound 41]	–	–	<5	8.3	<5	–
CCOC(=O)C(=O)Nc1ccc2[nH]cc(C3=CCN(CC4ON=C5c6cc(OC)c(OC)cc6OCC54)CC3)c2c1 (racemic) [Compound 42]	–	–	<5.5	8.2	<5	–
COc1cc2c(cc1OC)C1=NOC(CN3CC=C(c4c[nH]c5ccc(NS(C)(=O)=O)cc45)CC3)C1CO2.O=C(O)C(F)(F)F (racemic) [Compound 43]	–	–	<5	8.7	6.0	–
COc1cc2c(cc1OCCO)OCC1C2=NOC1CN1CCC(c2c[nH]c3ccc(F)cc23)CC1 (racemic) [Compound 47]	398	100	–	–	–	–
COc1cc2c(cc1OCCOC(C)=O)OCC1C2=NOC1CN1CCC(c2c[nH]c3ccc(F)cc23)CC1 (racemic) [Compound 48]	79.4	158	–	–	–	IC50 (Human 5HT1A receptor; [3]): 1.58 nM
COCC(=O)OCCOc1cc2c(cc1OC)C1=NOC(CN3CCC(c4c[nH]c5ccc(F)cc45)CC3)C1CO2 (racemic) [Compound 49]	–	–	6.9	–	6.7	–
CCNC(=O)OCCOc1cc2c(cc1OC)C1=NOC(CN3CCC(c4c[nH]c5ccc(F)cc45)CC3)C1CO2 (racemic) [Compound 50]	–	–	6.9	8.6	6.8	–
Fc1ccc2c(C3CCN(CC4ON=C5c6ccc(NCCN7CCCC7)cc6OCC54)CC3)c[nH]c2c1 (racemic) [Compound 51]	–	–	8.2	7.7	7.9	–
Fc1ccc2c(C3CCN(CC4ON=C5c6ccc(N7CCOCC7)cc6OCC54)CC3)c[nH]c2c1 (racemic) [Compound 52]	–	–	7.4	7.5	7.5	–
COc1cc2c(cc1OC)C1=NOC(CN3CCC(c4c[nH]c5ccc(Br)cc45)CC3)C1CO2 (racemic) [Compound 53]	–	–	6.4	–	6.7	–
COc1cc2c(cc1OC)C1=NOC(CN3CCC(c4c[nH]c5ccc(O)cc45)CC3)C1CO2 (racemic) [Compound 54]	63.1	398	–	–	–	–
Fc1ccc2[nH]cc(C3=CCN(CC4ON=C5c6ccc(N7CCOCC7)cc6OCC54)CC3)c2c1 (racemic) [Compound 55]	–	–	7.5	7.8	6.3	–
Fc1ccc2[nH]cc(C3=CCN(CC4ON=C5c6ccc(NCCN7CCCC7)cc6OCC54)CC3)c2c1 (racemic) [Compound 56]	–	–	8.1	8.1	6.8	–
COc1cc2c(cc1OC)C1=NOC(CN3CCC(Cc4c[nH]c5ccc(F)cc45)CC3)C1CO2 (racemic) [Compound 57]	–	–	8.3	6.4	6.3	–
COc1cc2c(cc1OC)C1=NO[C@@H](CN3CCC(n4ccc5ccccc54)CC3)[C@@H]1CO2 (racemic) [Compound 58]	631	501	–	–	–	IC50 (Human 5HT1A receptor): 25.1 nM
Nc1ccc2c(c1)OCC1C2=NOC1CN1CC=C(c2c[nH]c3ccc(F)cc23)CC1 (racemic) [Compound 61]	–	–	6.9	7.3	–	–
COCCOCOc1cc2c(cc1OC)C1=NOC(CN3CC=C(c4c[nH]c5ccc(F)cc45)CC3)C1CO2 (racemic) [Compound 63]	–	–	7.6	6.0	7.9	–
COc1cc2c(cc1OC)C1=NO[C@@H](CN3CC=C(c4cn(C)c5ccccc45)CC3)[C@@H]1CO2 (single isomer, unassigned) [Compound 34]	–	2000	–	–	–	IC50 (human 5HT transporter): 63.1 nM; IC50 (Human 5HT1A receptor): 20 nM
CC(=O)Nc1ccc2c(c1)OCC1C2=NOC1CN1CCC(c2c[nH]c3ccc(F)cc23)CC1 (stereo not drawn) [Compound 46]	50.1	316	–	–	–	–
